Measurements published in publication PMC9925730, “Controlled sequential in situ self-assembly and disassembly of a fluorogenic cisplatin prodrug for cancer theranostics” (Nature Communications, 2023).
Values joined by “and” are separate entries in the source; they are usually repeats but may differ in a detail not shown here. Equal entries are not always repeated.

Assays:
s.c. HeLa tumors = test: Biodistribution study of Pt (ICP-OES); format: in vivo, mice
[1] = Urine and faeces analysis by ICP-OES (Pt element); format: in vivo, mice; design: Pt in urine / Pt in feces: unit not given beside the values
Description: page 47: determined using ELISA kits according to manufacturer 's protocol. Determination of the blood circulation half-life. […], or CDDP (at a dose of 2.25 mg kg-1 Pt) was i.v. injected into healthy female BALB/c nude mice (6-8 weeks old). […] The collected blood was digested with concentrated HNO3 (65-70%, 2 mL) and HCl (36~38%, 1 mL) at 90 °C overnight. The residues were then diluted with 5 mL 2% HNO3 and 5% HCl solution, and the concentrations of Pt element were determined by ICP-OES, which were further applied to calculate the contents of Pt element in the blood. The plot of the percentage of Pt element remained in the blood versus injection time to yield the pharmacokinetic time. Urine and Faeces analysis. […] Urine and faeces were collected at 2 (for 0-2 h), 4 (for 2-4 h), 8 (for 4- 8 h) and 12 h (for […]), which were diluted in methanol and centrifuged at 3,600 × g for 10 min, followed by filtering via a 0.22 μm syringe filter. The solutions were analyzed by HPLC (660 nm detection) to characterize all the mCy-containing compounds. Using the established standard curves for […] Cy-COOH, the amount of each compound in the urine and faeces could be calculated, which were further applied to determine the percentage of them in the urine and faeces. The data were summarized in Supplementary Tables 5-8. […] Urine and faeces were collected and weighed. The urine and faeces were digested with concentrated HNO3 (65~70%) and HCl (36~38%) at 90 °C for 24 h. The solution was diluted to 5 mL 2% HNO3 and 5% HCl solution, and the concentration of Pt element was measured by ICP-OES, which was further applied to calculate the percentage of Pt in corresponding urine and faeces. The data were summarized in Supplementary Tables 9 and 10. 47

[2] = General design summary of signals and cytotoxicity (Fig. 1a)
Source text: P-CyPt is designed to (1) offer activatable near-infrared (NIR) FL and PA signals for bimodality imaging through ALP-mediated in situ self-assembly and (2) release CDDP for on-demand therapy via GSH-triggered disassembly (Fig. 1a). […] After systemic administration, P-CyPt as a small molecule can extravasate and penetrate deeply into tumor tissues (Fig. 1b). In tumor tissues that are membrane-bound ALP positive, rapid dephosphorylation of P-CyPt by the membrane-bound ALP generates CyPt, switching on NIR FL (λem = 710 nm) and PA signals (λ = 700 nm); moreover, CyPt with increased hydrophobicity is susceptible to self-assembly into Pt(IV) nanoparticles (Pt^IVNPs), which turns on another PA signal (λ = 750 nm) resulting from the aggregation-caused bathochromic shift. The on-site formed Pt^IVNPs can anchor on the cell membranes, which attenuate diffusion, prolong retention, and enhance translocation into cells[32],[33]. Within tumor cells, the abundant endogenous GSH can reduce Pt(IV) into Pt(II), producing negatively charged Cy-COOH that promotes NPs disassembly and accelerates release of CDDP intracellularly. This process dramatically raises intracellular CDDP’s concentration while depletes GSH’s level to effectively kill tumor cells. Moreover, the disassembly of Pt^IVNPs into Cy-COOH further increases NIR FL (called as “ON-ON”) as the aggregation-caused quenching (ACQ) effect is eliminated; however, the PA signal at 750 nm is turned off but the PA signal at 700 nm is kept at “ON” state. The sequential switches in NIR FL and PA bimodal imaging signals can allow P-CyPt to reliably monitor the ALP-triggered in situ self-assembly and GSH-driven disassembly process in vivo, facilitating to guide precise chemotherapy of tumors.

[3] = Urine and faeces analysis by ICP-OES (Pt element); format: in vivo, mice; design: Pt in urine / Pt in feces: unit not given beside the values; remark: listed apart in the source
[4] = Side toxicity in s.c. HeLa tumor-bearing mice (body weight, BUN, CRE, H&E)
[5] = i.v. 2.25 mg kg-1 Pt, 0-2 h, ICP-OES

[NH2][Pt]([NH2])([Cl])[Cl] [CDDP, cisplatin]
organ with the highest ID% g^−1 (s.c. HeLa tumors; 4 h post i.v. injection): kidneys
ID% g^−1 of Pt in tumors (s.c. HeLa tumors; s.c. HeLa tumors, 4 h post i.v. (100 μM, 200 μL), ICP-OES): ~ 3.6%
Percentage of Pt element excreted to the faeces ([1]; 2-4 h): 2.60 ± 0.45%
Percentage of Pt element excreted to the urine ([1]; 2-4 h): 10.94 ± 1.14%
Percentage of Pt element excreted to the faeces ([1]; 4-8 h): 4.55 ± 0.60%
Percentage of Pt element excreted to the urine ([1]; 4-8 h): 5.45 ± 0.94%
Percentage of Pt element excreted to the urine ([1]; 8-12 h): 3.48 ± 0.58%
Pt in urine ([1]; Fig.6g, 0-2 h, mean of 3 mice): 15.456
Pt in urine ([1]; Fig.6g, 0-2 h, single mice): 14.877 and 18.189 and 13.302
Pt in urine ([1]; Fig.6g, 2-4 h, mean of 3 mice): 10.936
Pt in urine ([1]; Fig.6g, 2-4 h, single mice): 10.576 and 12.209 and 10.023
Pt in urine ([1]; Fig.6g, 4-8 h, mean of 3 mice): 5.452
Pt in urine ([1]; Fig.6g, 4-8 h, single mice): 5.332 and 6.452 and 4.572
Pt in urine ([1]; Fig.6g, 8-12 h, mean of 3 mice): 3.482
Pt in feces ([1]; Fig.6h, 0-2 h, mean of 3 mice): 0.193
Pt in feces ([1]; Fig.6h, 0-2 h, single mice): 0.190 and 0.242 and 0.148
Pt in feces ([1]; Fig.6h, 2-4 h, mean of 3 mice): 2.596
Pt in feces ([1]; Fig.6h, 2-4 h, single mice): 2.468 and 3.099 and 2.222
Pt in feces ([1]; Fig.6h, 4-8 h, mean of 3 mice): 4.548
Pt in feces ([1]; Fig.6h, 4-8 h, single mice): 4.452 and 5.187 and 4.005
Pt in feces ([1]; Fig.6h, 8-12 h, mean of 3 mice): 2.704
Pt accumulatively cleared (urine + faeces) ([1]; during 12 h): ~ 45.3%
Pt in feces ([1]; feces collected 0-2 h, mouse-1): 0.190
Pt in feces ([1]; feces collected 0-2 h, mouse-2): 0.242
Pt in feces ([1]; feces collected 0-2 h, mouse-3): 0.148
Pt in feces ([1]; feces collected 2-4 h, mouse-1): 2.468
Pt in feces ([1]; feces collected 2-4 h, mouse-2): 3.099
Pt in feces ([1]; feces collected 2-4 h, mouse-3): 2.222
Pt in feces ([1]; feces collected 4-8 h, mouse-1): 4.452
Pt in feces ([1]; feces collected 4-8 h, mouse-2): 5.187
Pt in feces ([1]; feces collected 4-8 h, mouse-3): 4.005
Pt in feces ([1]; feces collected 8-12 h, mouse-1): 2.646
Pt in feces ([1]; feces collected 8-12 h, mouse-3): 2.294
Percentage of Pt element excreted to the faeces [1, 5]: 0.19 ± 0.046%
Percentage of Pt element excreted to the urine [1, 5]: 15.46 ± 2.49%
Pt in urine, mean ([1]; urine collected 0-2 h, mean of 3 mice): 15.456
Pt in urine ([1]; urine collected 0-2 h, mouse-1): 14.877
Pt in urine ([1]; urine collected 0-2 h, mouse-2): 18.189
Pt in urine ([1]; urine collected 0-2 h, mouse-3): 13.302
Pt in urine, mean ([1]; urine collected 2-4 h, mean of 3 mice): 10.936
Pt in urine ([1]; urine collected 2-4 h, mouse-1): 10.576
Pt in urine ([1]; urine collected 2-4 h, mouse-2): 12.209
Pt in urine ([1]; urine collected 2-4 h, mouse-3): 10.023
Pt in urine, mean ([1]; urine collected 4-8 h, mean of 3 mice): 5.452
Pt in urine ([1]; urine collected 4-8 h, mouse-1): 5.332
Pt in urine ([1]; urine collected 4-8 h, mouse-2): 6.452
Pt in urine ([1]; urine collected 4-8 h, mouse-3): 4.572
Pt in urine, mean ([1]; urine collected 8-12 h, mean of 3 mice): 3.482
Pt in urine ([1]; urine collected 8-12 h, mouse-1): 3.482
Pt in urine ([1]; urine collected 8-12 h, mouse-2): 4.062
Pt in urine ([1]; urine collected 8-12 h, mouse-3): 2.903
Cytotoxicity [2]: High
Percentage of Pt element excreted to the faeces ([3]; 8-12 h): 2.70 ± 0.44%
Pt in urine ([3]; Fig.6g, 8-12 h, single mice): 3.482 and 4.062 and 2.903
Pt in feces ([3]; Fig.6h, 8-12 h, single mice): 2.646 and 3.172 and 2.294
Pt in feces ([3]; feces collected 8-12 h, mouse-2): 3.172
body weight during treatment ([4]; 2.25 mg kg^−1 Pt i.v. x5, 21 days): obviously decreased
increase of blood urea nitrogen (BUN) level ([4]; day 21): ~ 1.6 fold
increase of creatinine (CRE) level ([4]; day 21): ~ 1.4 fold
